Experimental data reported in patent US20250177398A1, “CARBONIC ANHYDRASE ENZYMES FOR REGULATING MAST CELL HEMATOPOIESIS AND TYPE 2 INFLAMMATION” (RUTGERS, THE STATE UNIVERSITY OF NEW JERSEY, priority 2015, published 2025).

Tests used:
[1] = system: Aspergillus fumigatus-induced allergic airway inflammation; experiment: Aspergillus fumigatus extract-induced allergic asthma; format: in vivo, mouse; details: mice challenged intranasally with A. fumigatus extract for 3 weeks, MZ (FIG. 5)
Procedure: Aspergillus-induced allergic asthma. Mice were challenged with Aspergillus fumigatus allergic extract as previously described (Mathias, C. B., et al., J Immunol 182, 2416-2424 (2009)). Briefly, mice were challenged (intranasally) 3 times a week for 3 weeks with 50 μl of aqueous Aspergillus fumigatus Allergenic Extract (Greer laboratories: item # M3). After 3 weeks mice were sacrificed and BAL and lungs were processed as previously described (Espinosa, V., et al., PLOS Pathog 10, e1003940 (2014)).

[2] = system: atopic dermatitis (AD)-like disease; experiment: MC903-induced atopic dermatitis-like disease; format: in vivo, mouse; details: MC903-treated mice, 2-3 mg MZ i.p. daily
Procedure: (§1) Single cell suspensions were made from mesenteric, or skin draining lymph nodes. Lymph node cells were cultured in RPMI complete medium and treated with and without anti-CD3 (BD Pharmingen: clone 145-2C11) and anti-CD28 antibodies (BD Pharmingen: clone 37.51) for 72 hours. Standard sandwich ELISA (eBioscience) was performed to measure IL-4 (clones 11B11 and BVD6-24G2), IL-5 (clones TRFK5 and TRFK4) and IL-13 (clones eBio13A and eBio1316H) levels in the cell-free supernatants. Serum quantities of Mcpt1 and IgE were measured by commercial sandwich ELISA kits (BD Biosciences, eBioscience).
Mice were treated once a day topically with 2 nmol of MC903 (calcipotriol, Tocris Bioscience) in 20 μl of ethanol for 6 days as described previously (Kim, et al., 2013. Sci Transl Med 5: 170ra116). MC903-treated mice were treated with vehicle (1:5 DMSO to PBS) or 2-3 mg of MZ i.p. daily and sacrificed on day 7 post-treatment.

Trichinella spiralis = Trichinella spiralis infection of mice; format: in vivo, mouse; details: T. spiralis-infected mice
Procedure: Methods for maintenance, recovery, infection and isolation of Trichinella larvae were performed as previously described (Urban, et al., 2000. J Immunol 164:2046-2052). Mice were infected with 500 Trichinella muscle larvae by oral gavage and were treated with vehicle (1:5 DMSO to PBS) or 2-3 mg of MZ i.p. daily; mice were sacrificed between 10-11 days post-infection. At necropsy, single cell suspensions of mLNs and spleens were prepared as previously described (Giacomin, et al., 2012. Journal of immunology (Baltimore, Md.: 1950) 189:4371-4378) for basophil and mast cell analysis. Blood was collected and serum was isolated for analysis of Mcpt1 and IgE. Sections (1 cm) of small intestine (jejunum) were collected for real-time PCR and histological analysis. Remaining sections of small intestine were slit lengthwise, rinsed in PBS, and placed in HBSS for 4 hours at 37° C. and adult worms were quantified by microscopic analysis as previously described (Urban, et al., 2000. J Immunol 164:2046-2052). Rag1^−/− mice were injected (i.p.) with a combination of recombinant IL-3 (1 μg) and α-IL-3 antibody (0.5 μg) (BioLegend: clone MP2-8F8) in 200 μl PBS every 3 days for 7-10 days. IL-3C-treated mice were treated with MZ (2 mg) or vehicle (DMSO) every day.
RNA from sections of small intestine was isolated by homogenization in TRIzol (Invitrogen) followed by phenol-chloroform extraction and isopropanol precipitation. cDNA was generated per standard protocol with Superscript reverse transcriptase (Invitrogen) and used as input for real-time PCR. Real-time data were analyzed using the ΔΔCT method using SYBR Green chemistry (Applied Biosystems) with β-actin serving as the endogenous housekeeping gene. All reactions were run on an ABI 7500 Fast Real-Time PCR System (Applied Biosystems). Samples were normalized to naïve controls. The following QuantiTech primer assays from Qiagen were used: Mcpt1 (QT00157864), IL-4 (QT00160678), IL-9 (QT00107555), Arg1 (QT00134288), Retnla (QT00254359), Car1 (QT01058113) and Car2 (QT00494592).
as §1

Aspergillus fumigatus = Aspergillus fumigatus (FLARE conidia) lung infection; format: in vivo, mouse; details: A. fumigatus-infected mice, 2-3 mg MZ i.p. daily, 72 hours post-infection (FIGS. 3H-3J)
Procedure: A. fumigatus strain Af293 was grown on glucose minimal media (GMM) agar plates for 3 days or Sabouraud dextrose agar (SDA) for 7-10 days at 37° C., respectively. Conidia were harvested by adding 0.01% Tween 80 to plates and gently scraping conidia from the plates using a cell scraper. Conidia were then filtered through sterile Miracloth, were washed and resuspended in phosphate buffered saline (PBS), and counted on a hemocytometer. FLARE conidia were prepared as previously described (Espinosa, et al., 2014. PLOS Pathog 10:e1003940). Mice were challenged with 5×10^7 A. fumigatus conidia intratracheally (i.t.) as described previously (Espinosa, et al., 2014. PLOS Pathog 10:e1003940). Mice were treated with vehicle (1:5 DMSO to PBS) or 2-3 mg of MZ i.p. daily and sacrificed 72 hours post-infection. Bronchoalveolar lavage (BAL) fluid was collected by washing the lungs with 2 mL of PBS containing 0.05M EDTA. After collection of the BAL fluid, lung samples were minced in RPMI containing 100 units/mL of collagenase (Gibco) and incubated at 37° C. for 60 minutes, disrupted and filtered. Subsequently, red blood cells were lysed using a Tris ammonium chloride solution. Analysis of neutrophils was conducted using a panel of cell surface markers: CD45, CD11b, and Ly6G as previously described (Espinosa, et al., 2014. PLOS Pathog 10:e1003940). […]

[3] = system: BM cells (macrophage development); experiment: Murine macrophage cultures: BM cells with L-cell supernatant; format: cell-based, mouse; details: 30% L-cell supernatant, 30 μg/mL MZ, day 5 (FIG. 1G)
Procedure: BM cells were isolated from the femur of WT mice and cultured in the presence of 30% L-cell supernatant and vehicle (1:10 DMSO to RPMI complete media) or 30 μg/mL MZ. Fresh macrophage medium with either vehicle or MZ was added daily and macrophage cell populations were evaluated on day 5 post-culture

SMILES: CC(=O)/N=c1/sc(S(N)(=O)=O)nn1C [MZ, methazolamide]
- eosinophilic airway inflammation (eosinophils in BAL and lung) [1]: significantly reduced
- pulmonary mast cell responses [1]: significantly reduced
- type 2 cytokine production (skin-draining LN IL-4, IL-5, IL-13) vs controls ([2]; day 7 (FIG. 3E)): equivalent or significantly increased
- AD-like pathology vs controls ([2]; day 7 (FIG. 3F)): similar
- type 2 responses (mLN cell IL-4, IL-5, IL-13; intestinal il4, il9, arg1, retnla; serum IgE) (Trichinella spiralis; 2-3 mg MZ i.p. daily (FIG. 3A-C)): significantly reduced
- worms recovered from the intestines (worm burden) (Trichinella spiralis; 2-3 mg MZ i.p. daily (FIG. 3D)): significantly more
- infection-induced basophilia (splenic basophils) (Trichinella spiralis; 2-3 mg MZ i.p. daily (FIGS. 2F-2G)): no effect
- mast cell responses (mLN mast cells, serum Mcpt1, intestinal mcpt1 expression, intestinal mast cells by histology) (Trichinella spiralis; 2-3 mg MZ i.p. daily, day 10-11 (FIGS. 2A-2E)): significantly reduced
- fungal clearance (Aspergillus fumigatus): increased
- neutrophil responses (Aspergillus fumigatus): increased
- macrophage development [3]: no effect
